We go through twelve molecules from ChEMBL document CHEMBL2385042, “Diterpenoids with diverse skeletons from the roots of Euphorbia micractina” (J Nat Prod, 2013).

One assay concerns Bel-7402. Put plainly: Cytotoxicity against human Bel7402 cells assessed as cell viability at 10 uM after 96 hrs by MTT assay. It is filed as functional, cell-based. (Formazan colour is commonly taken as a measure of viable cells.)
For assay [1], the target named is T1, Tyrosine-protein phosphatase non-receptor type 1 (Homo sapiens) (UniProt P18031).
T1 sequence (whole entry): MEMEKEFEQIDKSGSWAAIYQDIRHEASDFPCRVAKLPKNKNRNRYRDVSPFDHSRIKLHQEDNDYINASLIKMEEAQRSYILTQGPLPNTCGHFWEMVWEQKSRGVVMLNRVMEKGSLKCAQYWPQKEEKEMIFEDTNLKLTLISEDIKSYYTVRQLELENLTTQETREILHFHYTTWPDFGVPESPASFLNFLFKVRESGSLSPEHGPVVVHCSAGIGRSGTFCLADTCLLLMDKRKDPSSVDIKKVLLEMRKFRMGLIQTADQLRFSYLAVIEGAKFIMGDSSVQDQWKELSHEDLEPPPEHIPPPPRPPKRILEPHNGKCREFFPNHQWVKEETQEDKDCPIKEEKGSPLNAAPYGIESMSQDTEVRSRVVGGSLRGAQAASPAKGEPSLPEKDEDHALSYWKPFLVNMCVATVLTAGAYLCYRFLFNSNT
As to the kind of experiment: Inhibition of human recombinant GST-tagged PTP1B using para-nitrophenyl phosphate as substrate assessed as release of para-nitrophenol at 10 uM after 10 mins by spectrophotometric analysis.

A further assay concerns KETR3. Put plainly: Cytotoxicity against human Ketr3 cells assessed as cell viability at 10 uM after 96 hrs by MTT assay. In kind it is functional, cell-based.
Another assay has as its system BGC-823. Put plainly: Cytotoxicity against human BGC823 cells assessed as cell viability at 10 uM after 96 hrs by MTT assay. In kind it is functional, cell-based.
Assay [2] deals with Human immunodeficiency virus 1. Put plainly: Antiviral activity against HIV1 infected in human 293T cells assessed as inhibition of viral replication at 10 uM incubated for 15 mins prior to infection measured after 48 hrs by luciferase reporter gene assay. It is filed as functional, organism-based. Background: In a reporter assay the amount or activity of a reporter protein is the signal.

Another assay deals with HCT-8. As to the kind of experiment: Cytotoxicity against human HCT8 cells assessed as cell viability at 10 uM after 96 hrs by MTT assay. In kind it is functional, cell-based.
Another assay deals with MCF7. Put plainly: Cytotoxicity against human MCF7 cells assessed as cell viability at 10 uM after 96 hrs by MTT assay. In kind it is functional, cell-based.
In a further assay the test system is A549. As to the kind of experiment: Cytotoxicity against human A549 cells assessed as cell viability at 10 uM after 96 hrs by MTT assay. It is filed as functional, cell-based.
Assay [3] has as its system Human immunodeficiency virus 1. Put plainly: Antiviral activity against HIV1 infected in human 293T cells assessed as inhibition of viral replication incubated for 15 mins prior to infection measured after 48 hrs by luciferase reporter gene assay. To be noted: Human immunodeficiency virus 1, HEK-293T. It is filed as functional, organism-based.

Active and inactive are the calls of the source. No cut-off for these calls is given here.

Usually IC50 stands for the concentration that inhibits the measured activity by half.

Turning to `C[C@H]1C[C@]2(O)C(=O)[C@@]3(C)[C@@H]4O[C@H]4C(C)(C)[C@@H](O)CC[C@@]3(C)[C@H](O)[C@H]2[C@H]1OC(=O)c1ccccc1`, the outcome (in the assay on Bel-7402; with KETR3; with BGC-823; in [2]; in the assay with HCT-8; with MCF7) was inactive. Further, the outcome in the assay on A549 was inactive. For the same molecule, the inhibition entry in assay [1] is “inactive”.
With `C[C@H]1C[C@]2(O)C(=O)[C@@]3(C)[C@@H]4[C@@H](O)C(C)(C)[C@H]4CC[C@@]3(C)[C@H](O)[C@H]2[C@H]1OC(=O)c1ccccc1`, the result (with Bel-7402; with KETR3; in the assay with BGC-823; in [2]; in the assay on HCT-8; with MCF7) was inactive. Moreover, in the assay with A549, the outcome was inactive. For the same molecule, the inhibition entry in assay [1] was “inactive”.
With `CCO[C@@H]1[C@@H]2[C@H](CC[C@@]3(C)[C@H](O)[C@H]4[C@@H](OC(=O)/C=C/c5ccccc5)[C@@H](C)C[C@]4(O)C(=O)[C@@]13C)C2(C)C`, the outcome (with Bel-7402; in the assay with KETR3; in the assay with BGC-823; in [2]; with HCT-8; in the assay with MCF7) was inactive. Also, the result in the assay with A549 was inactive. In addition, the inhibition entry in [1] was “inactive”.
As to `C[C@H]1C[C@]2(O)C(=O)[C@@]3(C)[C@H](O)[C@@H]4[C@H](CC[C@@]3(C)[C@H](O)[C@H]2[C@H]1OC(=O)c1ccccc1)C4(C)C`, the outcome (with Bel-7402; in the assay on KETR3; with BGC-823; in assay [2]; in the assay on HCT-8; with MCF7) was inactive. Further, the outcome in the assay with A549 was inactive. In [1], the inhibition result was “inactive”.
Regarding `C[C@H]1C[C@]2(O)C(=O)[C@@]3(C)[C@H](O)[C@@H]4[C@H](CC[C@@]3(C)[C@H](O)[C@H]2[C@H]1OC(=O)/C=C/c1ccccc1)C4(C)C`, the outcome (with Bel-7402; in the assay on KETR3; with BGC-823; in assay [2]; with HCT-8; with MCF7) was inactive. Moreover, in the assay with A549, the outcome was inactive. Further, the inhibition entry in assay [1] is “inactive”.
With `CO[C@@H]1[C@@H]2[C@H](CC[C@@]3(C)[C@H](O)[C@H]4[C@@H](O)[C@@H](C)C[C@]4(OC(=O)c4ccccc4)C(=O)[C@@]13C)C2(C)C`, the outcome (in the assay with Bel-7402; in the assay with KETR3; in the assay with BGC-823; in [2]; in the assay with HCT-8; in the assay with MCF7) was inactive. The result in the assay with A549 was inactive. In addition, the inhibition entry in [1] was “inactive”.
Turning to `O=C1Nc2ccc(Cl)cc2[C@@](C#CC2CC2)(C(F)(F)F)O1` [EFAVIRENZ], the IC50 in assay [3] turned out to be 60 nM.
For the molecule `C[C@H]1C[C@]2(O)C(=O)[C@@]3(C)[C@@H]4O[C@H]4C(C)(C)[C@@H](O)CC[C@@]3(C)[C@H](O)[C@H]2[C@H]1OC(=O)/C=C/c1ccccc1`, the outcome (in the assay with Bel-7402; in the assay with KETR3; with BGC-823; in [2]; in the assay on HCT-8; in the assay on MCF7) was inactive. The outcome with A549 was inactive. For the same molecule, in assay [1], the inhibition result was “inactive”.
As for `CO[C@@H]1[C@@H]2[C@H](CC[C@@]3(C)[C@H](O)[C@H]4[C@@H](OC(=O)/C=C/c5ccccc5)[C@@H](C)C[C@]4(O)C(=O)[C@@]13C)C2(C)C`, the outcome (in the assay with Bel-7402; in the assay on KETR3; in the assay on BGC-823; in assay [2]; in the assay on HCT-8; in the assay with MCF7) was inactive. Besides, the outcome in the assay with A549 was inactive. The inhibition result in [1] is “inactive”.
As for `CCO[C@@H]1[C@@H]2[C@H](CC[C@@]3(C)[C@H](O)[C@H]4[C@@H](OC(=O)c5ccccc5)[C@@H](C)C[C@]4(O)C(=O)[C@@]13C)C2(C)C`, the result (in the assay on Bel-7402; in the assay with KETR3; in the assay on BGC-823; in assay [2]; with HCT-8; in the assay on MCF7) was inactive. Also, in the assay on A549, the outcome was inactive. Besides, in assay [1], the inhibition entry is “inactive”.
Regarding `C[C@H]1C[C@]2(O)C(=O)[C@@]3(C)[C@@H]4[C@@H](O)C(C)(C)[C@H]4CC[C@@]3(C)[C@H](O)[C@H]2[C@H]1OC(=O)/C=C/c1ccccc1`, the result (in the assay on Bel-7402; in the assay on KETR3; in the assay on BGC-823; in assay [2]; with HCT-8; with MCF7) was inactive. Besides, the outcome in the assay with A549 was inactive. For the same molecule, the inhibition result in assay [1] is “inactive”.
As to `CO[C@@H]1[C@@H]2[C@H](CC[C@@]3(C)[C@H](O)[C@H]4[C@@H](O)[C@@H](C)C[C@]4(OC(=O)/C=C/c4ccccc4)C(=O)[C@@]23C)C1(C)C`, the result (in the assay with Bel-7402; with KETR3; in the assay on BGC-823; in [2]; in the assay with HCT-8; in the assay on MCF7) was inactive. For the same molecule, the outcome with A549 was inactive. Besides, the inhibition entry in assay [1] is “inactive”.
